The compounds below were run on MDA-MB-231 (assay: Cell growth inhibition, CellTiter-Glo Luminescent Cell Viability Assay, MDA-MB-231). Conditions: Homo sapiens, MDA-MB-231, 96 h, MDA-MB-231 cells, 4 days.
Format: cell-based
Procedure: (§1) Cell growth inhibitory activity of representative Compounds of the Disclosure was determined using the CellTiter-Glo® Luminescent Cell Viability Assay. Cells were seeded in 384-well white opaque cell culture plates at a density of 2,000 cells/well with serially diluted compounds and incubated at 37° C. in an atmosphere of 95% air and 5% CO2 for 4 days. Cell viability was determined using the CellTiter-Glo® Luminescent Cell Viability Assay Kit (Promega, Madison, Wis.) according to the manufacture's instruction. Briefly, a volume of CellTiter-Glo® Reagent equal to the volume of cell culture medium was added to each well, and then the plates were incubated at room temperature for 10-20 minutes. The luminescent signal was measured using a Tecan Infinite M1000 multimode microplate reader (Tecan, Morrisville, N.C.). The half maximal inhibitory concentration (IC50) in Table 3 was calculated using the GraphPad Prism 5 software (GraphPad Software, La Jolla, Calif.).

IC50	SMILES
2.5 nM	Cc1c(C#Cc2cnn(CCCC(=O)OCCCN3CCC(Nc4cccc5c4CN(C4CCC(=O)NC4=O)C5=O)CC3)c2)sc2c1C(c1ccc(Cl)cc1)=N[C@@H](CC(=O)N1CCN(C)CC1)c1nnc(C)n1-2 (stereo partly drawn) [Cpd. No. 1, 3-(4-((2-(2,6-dioxopiperidin-3-yl)-1-oxoisoindolin-4-yl)amino)piperidin-1-yl)propyl 4-(4-(((S)-4-(4-chlorophenyl)-3,9-dimethyl-6-(2-(4-methylpiperazin-1-yl)-2-oxoethyl)-6H-thieno[3,2-f][1,2,4]triazolo[4,3-a][1,4]diazepin-2-yl)ethynyl)-1H-pyrazol-1-yl)butanoate]
0.1 nM	Cc1c(C#Cc2cnn(CCCC(=O)OCCCOc3cccc4c3CN(C3CCC(=O)NC3=O)C4=O)c2)sc2c1C(c1ccc(Cl)cc1)=N[C@@H](C)c1nnc(C)n1-2 (stereo partly drawn) [Cpd. No. 5, 3-((2-(2,6-dioxopiperidin-3-yl)-1-oxoisoindolin-4-yl)oxy)propyl 4-(4-(((S)-4-(4-chlorophenyl)-3,6,9-trimethyl-6H-thieno[3,2-f][1,2,4]triazolo[4,3-a][1,4]diazepin-2-yl)ethynyl)-1H-pyrazol-1-yl)butanoate]
12.2 nM	Cc1c(C#Cc2cnn(CCCC(=O)OCCOCCN3CCC(Nc4cccc5c4CN(C4CCC(=O)NC4=O)C5=O)CC3)c2)sc2c1C(c1ccc(Cl)cc1)=N[C@@H](CC(=O)N1CCN(C)CC1)c1nnc(C)n1-2 (stereo partly drawn) [compound 13, 2-(2-(4-((2-(2,6-dioxopiperidin-3-yl)-1-oxoisoindolin-4-yl)amino)piperidin-1-yl)ethoxy)ethyl 4-(4-(((S)-4-(4-chlorophenyl)-3,9-dimethyl-6-(2-(4-methylpiperazin-1-yl)-2-oxoethyl)-6H-thieno[3,2-f][1,2,4]triazolo[4,3-a][1,4]diazepin-2-yl)ethynyl)-1H-pyrazol-1-yl)butanoate]
20.7 nM	Cc1c(C#Cc2cnn(CCCC(=O)OCCOCCOCCN3CCC(Nc4cccc5c4CN(C4CCC(=O)NC4=O)C5=O)CC3)c2)sc2c1C(c1ccc(Cl)cc1)=N[C@@H](CC(=O)N1CCN(C)CC1)c1nnc(C)n1-2 (stereo partly drawn) [compound 14, 2-(2-(2-(4-((2-(2,6-dioxopiperidin-3-yl)-1-oxoisoindolin-4-yl)amino)piperidin-1-yl)ethoxy)ethoxy)ethyl 4-(4-(((S)-4-(4-chlorophenyl)-3,9-dimethyl-6-(2-(4-methylpiperazin-1-yl)-2-oxoethyl)-6H-thieno[3,2-f][1,2,4]triazolo[4,3-a][1,4]diazepin-2-yl)ethynyl)-1H-pyrazol-1-yl)butanoate]
24.1 nM	Cc1nnc2n1-c1sc(C#Cc3cnn(CCCC(=O)OCCOCCN4CCC(Nc5cccc6c5CN(C5CCC(=O)NC5=O)C6=O)CC4)c3)c(Cc3ccccc3)c1COC2 (stereo not drawn) [compound 26, 2-(2-(4-((2-(2,6-dioxopiperidin-3-yl)-1-oxoisoindolin-4-yl)amino)piperidin-1-yl)ethoxy)ethyl 4-(4-((3-benzyl-9-methyl-4H,6H-thieno[2,3-e][1,2,4]triazolo[3,4-c][1,4]oxazepin-2-yl)ethynyl)-1H-pyrazol-1-yl)butanoate]
23.3 nM	Cc1nnc2n1-c1sc(C#Cc3cnn(CCCC(=O)OCCOCCOCCN4CCC(Nc5cccc6c5CN(C5CCC(=O)NC5=O)C6=O)CC4)c3)c(Cc3ccccc3)c1COC2 (stereo not drawn) [compound 27, 2-(2-(2-(4-((2-(2,6-dioxopiperidin-3-yl)-1-oxoisoindolin-4-yl)amino)piperidin-1-yl)ethoxy)ethoxy)ethyl 4-(4-((3-benzyl-9-methyl-4H,6H-thieno[2,3-e][1,2,4]triazolo[3,4-c][1,4]oxazepin-2-yl)ethynyl)-1H-pyrazol-1-yl)butanoate]
> 100 nM	Cc1nnc2n1-c1sc(C#Cc3cnn(CC(=O)OCC#Cc4cccc5c4CN(C4CCC(=O)NC4=O)C5=O)c3)c(Cc3ccccc3)c1COC2 (stereo not drawn) [compound 39, 3-(2-(2,6-dioxopiperidin-3-yl)-1-oxoisoindolin-4-yl)prop-2-yn-1-yl 2-(4-((3-benzyl-9-methyl-4H,6H-thieno[2,3-e][1,2,4]triazolo[3,4-c][1,4]oxazepin-2-yl)ethynyl)-1H-pyrazol-1-yl)acetate]
24.3 nM	Cc1nnc2n1-c1sc(C#Cc3cnn(CC(=O)OCCC#Cc4cccc5c4CN(C4CCC(=O)NC4=O)C5=O)c3)c(Cc3ccccc3)c1COC2 (stereo not drawn) [compound 40, 4-(2-(2,6-dioxopiperidin-3-yl)-1-oxoisoindolin-4-yl)but-3-yn-1-yl 2-(4-((3-benzyl-9-methyl-4H,6H-thieno[2,3-e][1,2,4]triazolo[3,4-c][1,4]oxazepin-2-yl)ethynyl)-1H-pyrazol-1-yl)acetate]

Same assay, conditions: MDA-MB-231 cells, 4 days

IC50	SMILES
276 nM	Cc1c(C#Cc2cnn(CC(=O)OCC#Cc3cccc4c3CN(C3CCC(=O)NC3=O)C4=O)c2)sc2c1C(c1ccc(Cl)cc1)=N[C@@H](C)c1nnc(C)n1-2 (stereo partly drawn) [Cpd. No. 4, 3-(2-(2,6-dioxopiperidin-3-yl)-1-oxoisoindolin-4-yl)prop-2-yn-1-yl 2-(4-(((S)-4-(4-chlorophenyl)-3,6,9-trimethyl-6H-thieno[3,2-f][1,2,4]triazolo[4,3-a][1,4]diazepin-2-yl)ethynyl)-1H-pyrazol-1-yl)acetate]

These compounds were tested on MOLM13 (assay: Cell growth inhibition, CellTiter-Glo Luminescent Cell Viability Assay, MOLM13). Conditions: Homo sapiens, MOLM-13, 96 h, MOLM13 cells, 4 days.
Format: cell-based
Procedure: as §1

IC50	SMILES
1.1 nM	Cc1c(C#Cc2cnn(CCCC(=O)OCCCN3CCC(Nc4cccc5c4CN(C4CCC(=O)NC4=O)C5=O)CC3)c2)sc2c1C(c1ccc(Cl)cc1)=N[C@@H](CC(=O)N1CCN(C)CC1)c1nnc(C)n1-2 (stereo partly drawn) [Cpd. No. 1, 3-(4-((2-(2,6-dioxopiperidin-3-yl)-1-oxoisoindolin-4-yl)amino)piperidin-1-yl)propyl 4-(4-(((S)-4-(4-chlorophenyl)-3,9-dimethyl-6-(2-(4-methylpiperazin-1-yl)-2-oxoethyl)-6H-thieno[3,2-f][1,2,4]triazolo[4,3-a][1,4]diazepin-2-yl)ethynyl)-1H-pyrazol-1-yl)butanoate]
0.1 nM	Cc1c(C#Cc2cnn(CCCC(=O)OCCCOc3cccc4c3CN(C3CCC(=O)NC3=O)C4=O)c2)sc2c1C(c1ccc(Cl)cc1)=N[C@@H](C)c1nnc(C)n1-2 (stereo partly drawn) [Cpd. No. 5, 3-((2-(2,6-dioxopiperidin-3-yl)-1-oxoisoindolin-4-yl)oxy)propyl 4-(4-(((S)-4-(4-chlorophenyl)-3,6,9-trimethyl-6H-thieno[3,2-f][1,2,4]triazolo[4,3-a][1,4]diazepin-2-yl)ethynyl)-1H-pyrazol-1-yl)butanoate]
7.3 nM	Cc1nnc2n1-c1sc(C#Cc3cnn(CCCC(=O)OCCCNc4cccc5c4CN(C4CCC(=O)NC4=O)C5=O)c3)c(Cc3ccccc3)c1COC2 (stereo not drawn) [Cpd. No. 18, 3-((2-(2,6-dioxopiperidin-3-yl)-1-oxoisoindolin-4-yl)amino)propyl 4-(4-((3-benzyl-9-methyl-4H,6H-thieno[2,3-e][1,2,4]triazolo[3,4-c][1,4]oxazepin-2-yl)ethynyl)-1H-pyrazol-1-yl)butanoate]
0.2 nM	Cc1c(C#Cc2cnn(CCCC(=O)OCCCOc3cccc4c3CN(C3CCC(=O)NC3=O)C4=O)c2)sc2c1C(c1ccc(Cl)cc1)=N[C@@H](CC(=O)N1CCN(C)CC1)c1nnc(C)n1-2 (stereo partly drawn) [compound 9, 3-((2-(2,6-dioxopiperidin-3-yl)-1-oxoisoindolin-4-yl)oxy)propyl 4-(4-(((S)-4-(4-chlorophenyl)-3,9-dimethyl-6-(2-(4-methylpiperazin-1-yl)-2-oxoethyl)-6H-thieno[3,2-f][1,2,4]triazolo[4,3-a][1,4]diazepin-2-yl)ethynyl)-1H-pyrazol-1-yl)butanoate]
4 nM	Cc1c(C#Cc2cnn(CCCC(=O)OCCOCCOCCOc3cccc4c3CN(C3CCC(=O)NC3=O)C4=O)c2)sc2c1C(c1ccc(Cl)cc1)=N[C@@H](CC(=O)N1CCN(C)CC1)c1nnc(C)n1-2 (stereo partly drawn) [compound 10, 2-(2-(2-((2-(2,6-dioxopiperidin-3-yl)-1-oxoisoindolin-4-yl)oxy)ethoxy)ethoxy)ethyl 4-(4-(((S)-4-(4-chlorophenyl)-3,9-dimethyl-6-(2-(4-methylpiperazin-1-yl)-2-oxoethyl)-6H-thieno[3,2-f][1,2,4]triazolo[4,3-a][1,4]diazepin-2-yl)ethynyl)-1H-pyrazol-1-yl)butanoate]
7.3 nM	Cc1nnc2n1-c1sc(C#Cc3cnn(CCCOC(=O)CCCCc4cccc5c4CN(C4CCC(=O)NC4=O)C5=O)c3)c(Cc3ccccc3)c1COC2 (stereo not drawn) [compound 19, 3-(4-((3-benzyl-9-methyl-4H,6H-thieno[2,3-e][1,2,4]triazolo[3,4-c][1,4]oxazepin-2-yl)ethynyl)-1H-pyrazol-1-yl)propyl 5-(2-(2,6-dioxopiperidin-3-yl)-1-oxoisoindolin-4-yl)pentanoate]
22.6 nM	Cc1nnc2n1-c1sc(C#Cc3cnn(CCCOC(=O)CCCc4cccc5c4CN(C4CCC(=O)NC4=O)C5=O)c3)c(Cc3ccccc3)c1COC2 (stereo not drawn) [compound 20, 3-(4-((3-benzyl-9-methyl-4H,6H-thieno[2,3-e][1,2,4]triazolo[3,4-c][1,4]oxazepin-2-yl)ethynyl)-1H-pyrazol-1-yl)propyl 4-(2-(2,6-dioxopiperidin-3-yl)-1-oxoisoindolin-4-yl)butanoate]
17.6 nM	Cc1nnc2n1-c1sc(C#Cc3cnn(CCCC(=O)OCCCN4CCN(c5cccc6c5C(=O)N(C5CCC(=O)NC5=O)C6=O)CC4)c3)c(Cc3ccccc3)c1COC2 (stereo not drawn) [compound 24, 3-(4-(2-(2,6-dioxopiperidin-3-yl)-1,3-dioxoisoindolin-4-yl)piperazin-1-yl)propyl 4-(4-((3-benzyl-9-methyl-4H,6H-thieno[2,3-e][1,2,4]triazolo[3,4-c][1,4]oxazepin-2-yl)ethynyl)-1H-pyrazol-1-yl)butanoate]
4.9 nM	Cc1nnc2n1-c1sc(C#Cc3cnn(CCCC(=O)OCCCCc4cccc5c4CN(C4CCC(=O)NC4=O)C5=O)c3)c(Cc3ccccc3)c1COC2 (stereo not drawn) [compound 35, 4-(2-(2,6-dioxopiperidin-3-yl)-1-oxoisoindolin-4-yl)butyl 4-(4-((3-benzyl-9-methyl-4H,6H-thieno[2,3-e][1,2,4]triazolo[3,4-c][1,4]oxazepin-2-yl)ethynyl)-1H-pyrazol-1-yl)butanoate]
4.6 nM	Cc1nnc2n1-c1sc(C#Cc3cnn(CCCC(=O)OCCCc4cccc5c4CN(C4CCC(=O)NC4=O)C5=O)c3)c(Cc3ccccc3)c1COC2 (stereo not drawn) [compound 36, 3-(2-(2,6-dioxopiperidin-3-yl)-1-oxoisoindolin-4-yl)propyl 4-(4-((3-benzyl-9-methyl-4H,6H-thieno[2,3-e][1,2,4]triazolo[3,4-c][1,4]oxazepin-2-yl)ethynyl)-1H-pyrazol-1-yl)butanoate]
9.1 nM	Cc1nnc2n1-c1sc(C#Cc3cnn(CC(=O)OCCCOc4cccc5c4CN(C4CCC(=O)NC4=O)C5=O)c3)c(Cc3ccccc3)c1COC2 (stereo not drawn) [compound 37, 3-((2-(2,6-dioxopiperidin-3-yl)-1-oxoisoindolin-4-yl)oxy)propyl 2-(4-((3-benzyl-9-methyl-4H,6H-thieno[2,3-e][1,2,4]triazolo[3,4-c][1,4]oxazepin-2-yl)ethynyl)-1H-pyrazol-1-yl)acetate]

Same assay, conditions: MOLM13 cells, 4 days

IC50	SMILES
17.3 nM	Cc1c(C#Cc2cnn(CC(=O)OCC#Cc3cccc4c3CN(C3CCC(=O)NC3=O)C4=O)c2)sc2c1C(c1ccc(Cl)cc1)=N[C@@H](C)c1nnc(C)n1-2 (stereo partly drawn) [Cpd. No. 4, 3-(2-(2,6-dioxopiperidin-3-yl)-1-oxoisoindolin-4-yl)prop-2-yn-1-yl 2-(4-(((S)-4-(4-chlorophenyl)-3,6,9-trimethyl-6H-thieno[3,2-f][1,2,4]triazolo[4,3-a][1,4]diazepin-2-yl)ethynyl)-1H-pyrazol-1-yl)acetate]

Reference: patent publication US11267822B2, “BET bromodomain protein degraders with cleavable linkers” (THE REGENTS OF THE UNIVERSITY OF MICHIGAN, priority 2017, dated 2022)
